These are literature values, as cited in US20190105268A1, “Viscoelastic Gel of Liraglutide Adapted for Once-Weekly or Once Bi-Weekly Administration” (Sun Pharma Advanced Research Company Limited, priority 2016, published 2019).

liraglutide: the “solubility in DMSO” value (DMSO) is “slightly soluble”. The solubility in ethanol (ethanol) is 1100 µg/mL. In addition, the solubility in methanol entry (methanol) is on record as “up to 68 mg/ml”. Besides, the solubility in water result (water) is recorded as “insoluble to slightly soluble”.
